Experimental findings from patent publication US10086085B2, “Bifunctional cytotoxic agents” (priority 2014, dated 2018) are described below.

Where two headings read alike, the source gives them in different places.

Assay [1] has as its system N87 (human gastric carcinoma derived from metastatic liver site). The experiment in a line: Cytotoxicity assay for payloads (MTS), N87 cells. The format is cell-based. The procedure:
(§1) Cancer cell lines were obtained from ATCC (Manassas, Va.). N87 (human gastric carcinoma derived from metastatic liver site). HL60 (leukemia), A375 (melanoma) and HUVEC (human umbilical vein endothelial cells). were grown in RPMI 1640 media. All media were supplemented with 10% fetal bovine serum, 1% sodium pyruvate, and 1% L-glutamine (Invitrogen, Grand Island, N.Y.). Human umbilical vein endothelial cells (HUVEC) were obtained from Lonza (Allendale, N.J.) and maintained in EGM2 media supplemented with EGM-2 SingleQuots (Lonza # CC-4176). All cells were maintained in a humidified incubator (37° C., 5% CO2).
(§2) Cells in 100 μl medium were cultured in a 96-well plate. Cancer cell lines treated with the indicated compounds by adding 50 μl of 3× stocks in duplicate at 10 concentrations. Cells were incubated with compounds for four days, then 30 μl of CellTiter® 96 AQueous One MTS Solution (Promega Cat # G3582) was added to the cells, incubated 1.5 hr at 37° C., then absorbance measured at 490 nm on a Victor plate reader (Perkin Elmer, Waltham, Mass.). Relative cell viability was determined as a percentage of untreated control wells. IC50 values were calculated using four parameter logistic model #203 with XLfit v4.2 (IDBS, Guildford, Surry, UK).

Assay [2] deals with HL60 (leukemia). Kind of assay: Cytotoxicity assay for payloads (MTS), HL-60 cells. Type of assay: cell-based. As to conditions: Homo sapiens, 96 h, incubated with compounds for four days, MTS absorbance 490 nm. The procedure:
as §1, §2

Setting [3] is: Homo sapiens, 96 h, N87 cells, incubated with compounds for four days, MTS absorbance 490 nm, read-out: N87 IC50.

As usually defined, the IC50 is the concentration at which inhibition is half-maximal. For the compound `O=C(c1cncc(C(=O)N2C[C@@H](CCl)c3c2cc(O)c2ccccc32)c1)N1C[C@@H](CCl)c2c1cc(O)c1ccccc21` [Compound 26, (S)-pyridine-3,5-diylbis(((S)-1-(chloromethyl)-5-hydroxy-1H-benzo[e]indol-3(2H)-yl)methanone)], in assay [1] (setting [3]), the IC50 is not below 10 nM. Same read-out and setting: then `O=C(c1csc(C(=O)N2C[C@@H](CCl)c3c2cc(O)c2ccccc32)c1)N1C[C@@H](CCl)c2c1cc(O)c1ccccc21` [Compound 35, (S)-thiophene-2,4-diylbis(((S)-1-(chloromethyl)-5-hydroxy-1H-benzo[e]indol-3(2H)-yl)methanone)], with 1.21 nM; and `Cn1c(C(=O)N2C[C@@H](CCl)c3c2cc(O)c2ccccc32)ccc1C(=O)N1C[C@@H](CCl)c2c1cc(O)c1ccccc21` [Compound 38, (S)-(1-methyl-1H-pyrrole-2,5-diyl)bis(((S)-1-(chloromethyl)-5-hydroxy-1H-benzo[e]indol-3(2H)-yl)methanone)], with not below 10 nM. With `CC(=O)Oc1cc2c(c3ccccc13)[C@H](CCl)CN2C(=O)CNCC(=O)N1C[C@@H](CCl)c2c1cc(OC(C)=O)c1ccccc21` [Compound 53, Acetic acid (S)-3-{2-[2-((S)-5-acetoxy-1-chloromethyl-1,2-dihydro-benzo[e]indol-3-yl)-2-oxo-ethylamino]-acetyl}-1-chloromethyl-2,3-dihydro-1H-benzo[e]indol-5-1 ester], the IC50 in assay [2] came out at 0.012 nM. On to `O=C(N[C@@H](CCC(=O)N1C[C@@H](CCl)c2c1cc(O)c1ccccc21)C(=O)N1C[C@@H](CCl)c2c1cc(O)c1ccccc21)OCC1c2ccccc2-c2ccccc21` [Compound 60, [(S)-1-((S)-1-Chloromethyl-5-hydroxy-1,2-dihydro-benzo[e]indole-3-carbonyl)-4-((S)-1-chloromethyl-5-hydroxy-1,2-dihydro-benzo[e]indol-3-yl)-4-oxo-butyl]-carbamic acid 9H-fluoren-9-ylmethyl ester], for which the IC50 in assay [1] (setting [3]) is not below 10 nM. Still for that read-out and setting: then `CC(=O)Oc1cc2c(c3ccccc13)[C@H](CCl)CN2C(=O)c1ccc(C(=O)N2C[C@@H](CCl)c3c2cc(OC(C)=O)c2ccccc32)[nH]1` [Compound 68, (1S,1′S)-3,3′-(1H-pyrrole-2,5-dicarbonyl)bis(1-(chloromethyl)-2,3-dihydro-1H-benzo[e]indole-5,3-diyl)diacetate], with 0.033 nM; and `CC(=O)Oc1cc2c(c3ccccc13)[C@H](CCl)CN2C(=O)c1cnc(C(=O)N2C[C@@H](CCl)c3c2cc(OC(C)=O)c2ccccc32)s1` [Compound 71, (1S,1′S)-3,3′-(thiazole-2,5-dicarbonyl)bis(1-(chloromethyl)-2,3-dihydro-1H-benzo[e]indole-5,3-diyl)diacetate], with 0.085 nM; and `Cc1c[nH]c2c(O)cc3c(c12)[C@H](CCl)CN3C(=O)c1ccc(C(=O)N2C[C@@H](CCl)c3c2cc(O)c2ccccc32)s1` [Compound 117, ((S)-1-Chloromethyl-5-hydroxy-1,2-dihydro-benzo[e]indol-3-yl)-[5-((S)-1-chloromethyl-5-hydroxy-8-methyl-1,6-dihydro-2H-pyrrolo[3,2-e]indole-3-carbonyl)-thiophen-2-yl]methanone], with 0.004 nM.

For the compound `COC(=O)Oc1cc2c(c3ccccc13)[C@H](CCl)CN2C(=O)c1ccc(C(=O)N2C[C@@H](CCl)c3c2cc(O)c2ccccc32)s1` [Compound 119, (S)-1-(chloromethyl)-3-(5-((S)-1-(chloromethyl)-5-hydroxy-2,3-dihydro-1H-benzo[e]indole-3-carbonyl)thiophene-2-carbonyl)-2,3-dihydro-1H-benzo[e]indol-5-yl methyl carbonate], the IC50 in assay [1] (setting [3]) was found to be 0.004 nM. Turning to `CN(C)CCNC(=O)Oc1cc2c(c3ccccc13)[C@H](CCl)CN2C(=O)c1ccc(C(=O)N2C[C@@H](CCl)c3c2cc(O)c2ccccc32)s1` [Compound 123, (S)-1-(chloromethyl)-3-(5-((S)-1-(chloromethyl)-5-hydroxy-2,3-dihydro-1H-benzo[e]indole-3-carbonyl)thiophene-2-carbonyl)-2,3-dihydro-1H-benzo[e]indol-5-yl(2-(dimethylamino)ethyl)carbamate], the IC50 in assay [1] (Homo sapiens, 96 h, read-out: N87 IC50 (nM)) turned out to be 0.003 nM.

As for `CNCCN(C)C(=O)Oc1cc2c(c3ccccc13)[C@H](CCl)CN2C(=O)c1ccc(C(=O)N2C[C@@H](CCl)c3c2cc(O)c2ccccc32)s1` [Compound 126, (S)-1-(chloromethyl)-3-(5-((S)-1-(chloromethyl)-5-hydroxy-2,3-dihydro-1H-benzo[e]indole-3-carbonyl)thiophene-2-carbonyl)-2,3-dihydro-1H-benzo[e]indol-5-ylmethyl(2-(methylamino)ethyl)carbamate], the IC50 in assay [1] (N87 cells, incubated with compounds for four days, MTS absorbance 490 nm, read-out: N87 IC50) is 0.004 nM. In the case of `CC(=O)Oc1cc2c(c3ccccc13)[C@H](CCl)CN2C(=O)C12CCC(C(=O)N3C[C@@H](CCl)c4c3cc(O)c3ccccc43)(CC1)C2` [Compound 134, (1S)-1-(chloromethyl)-3-[(4-{[(1S)-1-(chloromethyl)-5-hydroxy-1,2-dihydro-3H-benzo[e]indol-3-yl]carbonyl}bicyclo[2.2.1]hept-1-yl)carbonyl]-2,3-dihydro-1H-benzo[e]indol-5-yl acetate], in assay [2], the IC50 stood at 0.099 nM. For the compound `O=C(CCc1ccc(CCC(=O)N2C[C@@H](CCl)c3c2cc(O)c2ccccc32)s1)N1C[C@@H](CCl)c2c1cc(O)c1ccccc21` [Compound 146, 3,3′-thiene-2,5-diylbis{1-[(1S)-1-(chloromethyl)-5-hydroxy-1,2-dihydro-3H-benzo[e]indol-3-yl]propan-1-one}], in assay [1] (setting [3]), the IC50 came out at 3.1 nM.

Take `CC(=O)OC[C@H]1O[C@@H](Oc2cc3c(c4ccccc24)[C@H](CCl)CN3C(=O)c2ccc(C(=O)N3C[C@@H](CCl)c4c3cc(O)c3ccccc43)s2)[C@H](OC(C)=O)[C@@H](OC(C)=O)[C@H]1OC(C)=O` [Compound 153, (2R,3S,4S,5R,6S)-2-(acetoxymethyl)-6-(((S)-1-(chloromethyl)-3-(5-((S)-1-(chloromethyl)-5-hydroxy-2,3-dihydro-1H-benzo[e]indole-3-carbonyl)thiophene-2-carbonyl)-2,3-dihydro-1H-benzo[e]indol-5-yl)oxy)tetrahydro-2H-pyran-3,4,5-triyl triacetate]: the IC50 in assay [1] (setting [3]) was found to be 4.47 nM.

For `CC(=O)Oc1cc2c(c3ccccc13)[C@H](CCl)CN2C(=O)Cc1ccc(CC(=O)N2C[C@@H](CCl)c3c2cc(OC(C)=O)c2ccccc32)s1` [Compound 160, thiene-2,5-diylbis[(1-oxoethane-2,1-diyl)(1S)-1-(chloromethyl)-1,2-dihydro-3H-benzo[e]indole-3,5-diyl] diacetate], the IC50 in assay [1] (setting [3]) came to 12.7 nM.

Consider `O=C(O)[C@H]1O[C@@H](Oc2cc3c(c4ccccc24)[C@H](CCl)CN3C(=O)c2ccc(C(=O)N3C[C@@H](CCl)c4c3cc(O)c3ccccc43)s2)[C@H](O)[C@@H](O)[C@@H]1O` [Compound 164, (2S,3S,4S,5R,6S)-6-(((S)-1-(chloromethyl)-3-(5-((S)-1-(chloromethyl)-5-hydroxy-2,3-dihydro-1H-benzo[e]indole-3-carbonyl)thiophene-2-carbonyl)-2,3-dihydro-1H-benzo[e]indol-5-yl)oxy)-3,4,5-trihydroxytetrahydro-2H-pyran-2-carboxylic acid], for which, in assay [2], the IC50 came to 0.057 nM.

Consider `CC(=O)Oc1cc2c(c3ccccc13)[C@H](CCl)CN2C(=O)[C@H]1C[C@@H](C(=O)N2C[C@@H](CCl)c3c2cc(OC(C)=O)c2ccccc32)C1` [Compound 168, cis-cyclobutane-1,3-diylbis[carbonyl(1S)-1-(chloromethyl)-1,2-dihydro-3H-benzo[e]indole-3,5-diyl] diacetate], for which the IC50 in assay [2] worked out at 0.097 nM.

Regarding `CC(=O)Oc1cc2c(c3ccccc13)[C@H](CCl)CN2C(=O)c1ccc(C(=O)N2C[C@@H](CCl)c3c2cc(O)c2ccccc32)s1` [Compound 170, (1S)-1-(chloromethyl)-3-[(5-{[(1S)-1-(chloromethyl)-5-hydroxy-1,2-dihydro-3H-benzo[e]indol-3-yl]carbonyl}thiophen-2-yl)carbonyl]-2,3-dihydro-1H-benzo[e]indol-5-yl acetate], the IC50 in assay [1] (setting [3]) came to 0.005 nM. On to `CC(=O)Oc1cc2c(c3ccccc13)[C@H](CCl)CN2C(=O)[C@]12CCC[C@](C(=O)N3C[C@@H](CCl)c4c3cc(O)c3ccccc43)(C1)C2` [Compound 175, (1S)-1-(chloromethyl)-3-{[(1S,5S)-5-{[(1S)-1-(chloromethyl)-5-hydroxy-1,2-dihydro-3H-benzo[e]indol-3-yl]carbonyl}bicyclo[3.1.1]hept-1-yl]carbonyl}-2,3-dihydro-1H-benzo[e]indol-5-yl acetate], for which the IC50 in assay [2] worked out at 11.8 nM. In the case of `CC(=O)Oc1cc2c(c3ccccc13)[C@H](CCl)CN2C(=O)C12C3C4C1C1C2C3C41C(=O)N1C[C@@H](CCl)c2c1cc(OC(C)=O)c1ccccc21` (stereo partly drawn) [Compound 181, pentacyclo[4.2.0.0~2,5~.0~3,8~.0~4,7~]octane-1,4-diylbis[carbonyl(1S)-1-(chloromethyl)-1,2-dihydro-3H-benzo[e]indole-3,5-diyl] diacetate], the IC50 in assay [1] (setting [3]) amounted to 0.005 nM.
